Source: US9815846B2 (Merck Sharp & Dohme Corp., priority 2014, dated 2017)

The compounds below were run against human TrkA receptor (Homo sapiens (Human), UniProt P04629) (assay: DiscoverX PathHunter TrkA functional assay (NGF-stimulated U2OS cells)). Settings: U2OS cells expressing human TrkA-PK, Shc1-EA and p75NTR; compound 1 h, then NGF at ~80% of maximal response for 3 h; luminescence.
Type: cell-based
Protocol: TrkA functional activity was measured using a DiscoverX PathHunter assay. In this assay, U2OS cells express the human TrkA receptor as a fusion with the weakly complementing fragment of B-galactosidase, which DiscoverX calls “Prolink (PK)”; additionally, Shcl is fused with a larger fragment, which is called “Enzyme Acceptor (EA)”. Activation of the TrkA receptor, upon NGF addition, results in the kinase domain being phosphorylated, resulting in subsequent recruitment of Shcl-EA protein. That recruitment results in an active B-galactosidase enzyme that is detected by addition of a chemiluminescent substrate. The human p75^NTR protein was also expressed as a co-receptor for NGF.
All reagents were purchased from DiscoverX, except for the receptor agonists (NGF, BDNF, NT3) which were purchased from Peprotech. Cells were expanded and frozen into cryovials, and stored in the vapor phase of liquid nitrogen, and thawed immediately before use. Thawed cells were added to a 384-well plate at 7500 cells/well, and allowed to incubate overnight. Compound at various concentrations was added the following morning and allowed to incubate on cells for 1 h. Then, NGF was added at a concentration sufficient to elicit ˜80% of a maximal response and allowed to incubate for 3 h at ambient temperature. DiscoverX PathHunter detection reagent was then added and the plate was further incubated for 1 h in the dark. The plate was then read via luminescence on the Perkin Elmer Envision.

Chain of human TrkA receptor (P04629 33-796): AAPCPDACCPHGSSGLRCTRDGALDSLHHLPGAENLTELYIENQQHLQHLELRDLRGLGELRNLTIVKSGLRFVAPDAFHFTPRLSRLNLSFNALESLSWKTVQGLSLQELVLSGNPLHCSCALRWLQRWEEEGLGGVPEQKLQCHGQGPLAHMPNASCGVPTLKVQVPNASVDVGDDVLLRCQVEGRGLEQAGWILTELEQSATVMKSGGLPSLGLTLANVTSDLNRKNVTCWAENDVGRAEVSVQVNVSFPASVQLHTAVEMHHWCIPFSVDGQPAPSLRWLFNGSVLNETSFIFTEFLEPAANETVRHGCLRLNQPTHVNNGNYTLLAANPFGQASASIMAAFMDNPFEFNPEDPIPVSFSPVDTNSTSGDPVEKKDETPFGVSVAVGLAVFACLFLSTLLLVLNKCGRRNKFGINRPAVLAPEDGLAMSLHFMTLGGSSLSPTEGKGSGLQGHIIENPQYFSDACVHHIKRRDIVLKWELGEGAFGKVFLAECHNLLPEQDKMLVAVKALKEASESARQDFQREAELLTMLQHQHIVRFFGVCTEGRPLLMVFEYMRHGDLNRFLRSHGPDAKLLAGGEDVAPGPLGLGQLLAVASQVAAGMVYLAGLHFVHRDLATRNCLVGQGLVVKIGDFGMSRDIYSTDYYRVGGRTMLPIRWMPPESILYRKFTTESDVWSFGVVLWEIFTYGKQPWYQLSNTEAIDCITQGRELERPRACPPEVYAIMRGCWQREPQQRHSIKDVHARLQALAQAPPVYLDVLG

Structure (SMILES)	IC50
Cn1ccc(-c2cc(C(=O)Nc3ccc(C4COC(=O)N4)nc3-c3ccccc3)c(F)cc2C(F)(F)F)n1 (single isomer, unassigned) [Example 196, (R or S)-2-Fluoro-5-(1-methyl-1H-pyrazol-3-yl)-N-(6-(2-oxooxazolidin-4-yl)-2-phenylpyridin-3-yl)-4-(trifluoromethyl)benzamide]	0.19 nM
O=C(Nc1cnc(CO)nc1-c1ccccc1)c1ccc(C(F)(F)F)c(-c2ncccn2)c1 [Example 39, N-(2-(Hydroxymethyl)-4-phenylpyrimidin-5-yl)-3-(pyrimidin-2-yl)-4-(trifluoromethyl)benzamide]	70 nM
Cn1ccc(-c2cc(C(=O)Nc3ccc(CNC(=O)[C@@H]4CCC(=O)N4)nc3-c3ccccc3)c(F)cc2C(F)(F)F)n1 [Example 57, (S)-N-((5-(2-fluoro-5-(1-methyl-1H-pyrazol-3-yl)-4-(trifluoromethyl)benzamido)-6-phenylpyridin-2-yl)methyl)-5-oxopyrrolidine-2-carboxamide]	1.1 nM
Cn1ccc(-c2cc(C(=O)Nc3cnc(NCC(N)=O)nc3-c3ccccc3)c(F)cc2C(F)(F)F)n1 [Example 213, N-(2-((2-amino-2-oxoethyl)amino)-4-phenylpyrimidin-5-yl)-2-fluoro-5-(1-methyl-1H-pyrazol-3-yl)-4-(trifluoromethyl)benzamide]	1.4 nM
Cn1ccc(-c2cc(C(=O)Nc3cnc(Cc4nnnn4C)nc3-c3ccccc3)c(F)cc2C(F)(F)F)n1 [Example 179, 2-Fluoro-5-(1-methyl-1H-pyrazol-3-yl)-N-(2-((1-methyl-1H-tetrazol-5-yl)methyl)-4-phenylpyrimidin-5-yl)-4-(trifluoromethyl)benzamide]	1 nM
Cn1ccc(-c2cc(C(=O)Nc3cnc(Cn4ccnc4)nc3-c3ccccc3)ccc2C(F)(F)F)n1 [Example 224, N-(2-((1H-imidazol-1-yl)methyl)-4-phenylpyrimidin-5-yl)-3-(1-methyl-1H-pyrazol-3-yl)-4-(trifluoromethyl)benzamide]	1.6 nM
CNC(=O)c1ccc(-c2cnc(-c3ccccc3)c(NC(=O)c3cc(-c4ncccn4)c(C(F)(F)F)cc3F)c2)nc1 [Example 174, 5′-(2-fluoro-5-(pyrimidin-2-yl)-4-(trifluoromethyl)benzamido)-N-methyl-6′-phenyl-[2,3′-bipyridine]-5-carboxamide]	4.8 nM
C[C@H](O)C(=O)N(C)Cc1ccc(NC(=O)c2cc(-c3ccn(C)n3)c(C(F)(F)F)cc2F)c(-c2ccccc2)n1 [Example 72, (S)-2-fluoro-N-(6-((2-hydroxy-N-methylpropanamido)methyl)-2-phenylpyridin-3-yl)-5-(1-methyl-1H-pyrazol-3-yl)-4-(trifluoromethyl)benzamide]	0.57 nM
NC(=O)Cc1ncc(NC(=O)c2cc(-c3ncccn3)c(C(F)(F)F)cc2F)c(-c2ccccc2)n1 [Example 125, N-(2-(2-amino-2-oxoethyl)-4-phenylpyrimidin-5-yl)-2-fluoro-5-(pyrimidin-2-yl)-4-(trifluoromethyl)benzamide]	14 nM
CC(=O)N1CCc2nc(-c3ccccc3)c(NC(=O)c3cc(-c4ncccn4)c(C(F)(F)F)cc3F)cc2C1 [Example 148, N-(6-acetyl-2-phenyl-5,6,7,8-tetrahydro-1,6-naphthyridin-3-yl)-2-fluoro-5-(pyrimidin-2-yl)-4-(trifluoromethyl)benzamide]	3.3 nM
Cn1ccc(-c2cc(C(=O)Nc3cnc(NC(=O)CO)nc3-c3ccccc3)c(F)cc2C(F)(F)F)n1 [Example 209, 2-Fluoro-N-(2-(2-hydroxyacetamido)-4-phenylpyrimidin-5-yl)-5-(1-methyl-1H-pyrazol-3-yl)-4-(trifluoromethyl)benzamide]	2 nM
Cn1ccc(-c2cc(C(=O)Nc3cc(-c4ccc(C(=O)O)cn4)cnc3-c3ccccc3)c(F)cc2C(F)(F)F)n1 [Example 171, 5′-(2-fluoro-5-(1-methyl-1H-pyrazol-3-yl)-4-(trifluoromethyl)benzamido)-6′-phenyl-[2,3′-bipyridine]-5-carboxylic acid]	10 nM
Cn1ccc(-c2cc(C(=O)Nc3cnc(CC(=O)N[C@H]4CCOC4)nc3-c3ccccc3)c(F)cc2C(F)(F)F)n1 [Example 110, (S)-2-fluoro-5-(1-methyl-1H-pyrazol-3-yl)-N-(2-(2-oxo-2-((tetrahydrofuran-3-yl)amino)ethyl)-4-phenylpyrimidin-5-yl)-4-(trifluoromethyl)benzamide]	1.2 nM
Cn1ccc(-c2cc(C(=O)Nc3cnc(Cc4nnc[nH]4)nc3-c3ccccc3)c(F)cc2C(F)(F)F)n1 [Example 129, N-(2-((4H-1,2,4-Triazol-3-yl)methyl)-4-phenylpyrimidin-5-yl)-2-fluoro-5-(1-methyl-1H-pyrazol-3-yl)-4-(trifluoromethyl)benzamide]	0.25 nM
Cn1ccc(-c2cc(C(=O)Nc3cnc(CN4CCN(S(C)(=O)=O)CC4)nc3-c3ccccc3)c(F)cc2C(F)(F)F)n1 [Example 182, 2-Fluoro-5-(1-methyl-1H-pyrazol-3-yl)-N-(2-((4-(methylsulfonyl)piperazin-1-yl)methyl)-4-phenylpyrimidin-5-yl)-4-(trifluoromethyl)benzamide]	5.1 nM
Cn1ccc(-c2cc(C(=O)Nc3cnc(CN4CCCCCC4=O)nc3-c3ccccc3)c(F)cc2C(F)(F)F)n1 [Example 221, 2-fluoro-5-(1-methyl-1H-pyrazol-3-yl)-N-(2-((2-oxoazepan-1-yl)methyl)-4-phenylpyrimidin-5-yl)-4-(trifluoromethyl)benzamide]	1.9 nM

Structure (SMILES)	IC50
Cn1ccc(-c2cc(C(=O)Nc3ccc(CC(N)=O)nc3-c3ccccc3)c(F)cc2C(F)(F)F)n1 [Example 102, N-(6-(2-Amino-2-oxoethyl)-2-phenylpyridin-3-yl)-2-fluoro-5-(1-methyl-1H-pyrazol-3-yl)-4-(trifluoromethyl)benzamide]	0.79 nM
C[C@@H](N)C(=O)NCc1ncc(NC(=O)c2cc(-c3ccn(C)n3)c(C(F)(F)F)cc2F)c(-c2ccccc2)n1 [Example 73, (R)-N-(2-((2-aminopropanamido)methyl)-4-phenylpyrimidin-5-yl)-2-fluoro-5-(1-methyl-1H-pyrazol-3-yl)-4-(trifluoromethyl)benzamide]	1 nM
Cn1ccc(-c2cc(C(=O)Nc3cnc(C(N)C(N)=O)nc3-c3ccccc3)c(F)cc2C(F)(F)F)n1 (stereo not shown) [Example 130, N-(2-(1,2-Diamino-2-oxoethyl)-4-phenylpyrimidin-5-yl)-2-fluoro-5-(1-methyl-1H-pyrazol-3-yl)-4-(trifluoromethyl)benzamide]	4.6 nM
Cn1ccc(-c2cc(C(=O)Nc3ccc(C4CNC(=O)C4)nc3-c3ccccc3)c(F)cc2C(F)(F)F)n1 (single isomer, unassigned) [Example 198, (R or S)-2-Fluoro-5-(1-methyl-1H-pyrazol-3-yl)-N-(6-(5-oxopyrrolidin-3-yl)-2-phenylpyridin-3-yl)-4-(trifluoromethyl)benzamide]	0.57 nM
Cc1nc(Cl)c(NC(=O)c2ccc(C(F)(F)F)c(-c3ccn(C)n3)c2)c(-c2ccccc2)n1 [Example 4, N-(4-Chloro-2-methyl-6-phenylpyrimidin-5-yl)-3-(1-methyl-1H-pyrazol-3-yl)-4-(trifluoromethyl)benzamide]	160 nM
Cn1ccc(-c2cc(C(=O)Nc3cnc(CN4C(=O)CCC4=O)nc3-c3ccccc3)c(F)cc2C(F)(F)F)n1 [Example 187, N-(2-((2,5-dioxopyrrolidin-1-yl)methyl)-4-phenylpyrimidin-5-yl)-2-fluoro-5-(1-methyl-1H-pyrazol-3-yl)-4-(trifluoromethyl)benzamide]	0.68 nM
Cc1cc(-c2ccccc2)c(NC(=O)c2ccc(C(F)(F)F)c(-c3cc[nH]n3)c2)cn1 [Example 5, N-(6-Methyl-4-phenylpyridin-3-yl)-3-(1H-pyrazol-5-yl)-4-(trifluoromethyl)benzamide]	14 nM
Cn1ccc(-c2cc(C(=O)Nc3cnc(CO)nc3-c3ccccc3)ccc2C(F)(F)F)n1 [Example 35, N-(2-(Hydroxymethyl)-4-phenylpyrimidin-5-yl)-3-(1-methyl-1H-pyrazol-3-yl)-4-(trifluoromethyl)benzamide]	7.3 nM
Cn1ccc(-c2cc(C(=O)Nc3cnc(C(C)(C)C(=O)O)nc3-c3ccccc3)c(F)cc2C(F)(F)F)n1 [Example 121, 2-(5-(2-fluoro-5-(1-methyl-1H-pyrazol-3-yl)-4-(trifluoromethyl)benzamido)-4-phenylpyrimidin-2-yl)-2-methylpropanoic acid]	8 nM
O=C(Nc1cc(N2CCOCC2)cnc1-c1ccccc1)c1ccc(C(F)(F)F)cc1Cl [Example 1, 2-Chloro-N-(5-morpholino-2-phenylpyridin-3-yl)-4-(trifluoromethyl)benzamide]	480 nM
CNCc1ncc(NC(=O)c2ccc(C(F)(F)F)c(-c3ccn(C)n3)c2)c(-c2ccccc2)n1 [Example 45]	16 nM
CNC(=O)Cc1ncc(NC(=O)c2cc(-c3ccn(C)n3)c(C(F)(F)F)cc2F)c(-c2ccccc2)n1 [Example 104, 2-fluoro-5-(1-methyl-1H-pyrazol-3-yl)-N-(2-(2-(methylamino)-2-oxoethyl)-4-phenylpyrimidin-5-yl)-4-(trifluoromethyl)benzamide]	0.76 nM
Cc1ncc(NC(=O)c2cccc(-n3nccc3C(F)(F)F)c2)c(-c2ccccc2)n1 [Example 14, N-(2-methyl-4-phenylpyrimidin-5-yl)-3-[5-(trifluoromethyl)-1H-pyrazol-1-yl]benzamide]	590 nM
Cn1ccc(-c2cc(C(=O)Nc3cnc(C4CCCNC4=O)nc3-c3ccccc3)c(F)cc2C(F)(F)F)n1 (stereo not shown) [Example 193, 2-Fluoro-5-(1-methyl-1H-pyrazol-3-yl)-N-(2-(2-oxopiperidin-3-yl)-4-phenylpyrimidin-5-yl)-4-(trifluoromethyl)benzamide]	3.9 nM
Cn1ccc(-c2cc(C(=O)Nc3ccc(C4CN(C(=O)CO)C4)nc3-c3ccccc3)c(F)cc2C(F)(F)F)n1 [Example 206, 2-Fluoro-N-(6-(1-(2-hydroxyacetyl)azetidin-3-yl)-2-phenylpyridin-3-yl)-5-(1-methyl-1H-pyrazol-3-yl)-4-(trifluoromethyl)benzamide]	1.3 nM
